The source made the active and inactive calls. The calls are words filed in the database; no cut-off is given here.
Experiments:
Format in all cases: functional, organism-based
Pseudomonas aeruginosa [1] = test: Antimicrobial activity against 10^6 CFU/ml Pseudomonas aeruginosa PAO1 after 24 hrs by time-kill assay
Pseudomonas aeruginosa [2] = test: Antimicrobial activity against 10^6 CFU/ml Pseudomonas aeruginosa URMC1 after 24 hrs by time-kill assay
Pseudomonas aeruginosa [3] = test: Antimicrobial activity against 10^6 CFU/ml Pseudomonas aeruginosa URMC2 after 24 hrs by time-kill assay
Pseudomonas aeruginosa [4] = test: Antimicrobial activity against 10^8 CFU/ml Pseudomonas aeruginosa PAO1 after 24 hrs by time-kill assay
Pseudomonas aeruginosa [5] = test: Antimicrobial activity against 10^8 CFU/ml Pseudomonas aeruginosa URMC1 after 24 hrs by time-kill assay
Pseudomonas aeruginosa [6] = test: Antimicrobial activity against 10^8 CFU/ml Pseudomonas aeruginosa URMC2 after 24 hrs by time-kill assay
Pseudomonas aeruginosa [7] = test: Antimicrobial activity against 10^9 CFU/ml Pseudomonas aeruginosa PAO1 after 24 hrs by time-kill assay
Pseudomonas aeruginosa [8] = test: Antimicrobial activity against 10^9 CFU/ml Pseudomonas aeruginosa URMC1 after 24 hrs by time-kill assay
Pseudomonas aeruginosa [9] = test: Antimicrobial activity against 10^9 CFU/ml Pseudomonas aeruginosa URMC2 after 24 hrs by time-kill assay
Pseudomonas aeruginosa [10] = test: Bactericidal activity against 10^6 CFU/ml Pseudomonas aeruginosa PAO1 at 1 to 4 times MIC up to 1 hr by time-kill assay
Pseudomonas aeruginosa [11] = test: Bactericidal activity against 10^6 CFU/ml Pseudomonas aeruginosa URMC1 at 1 to 4 times MIC up to 1 hr by time-kill assay
Pseudomonas aeruginosa [12] = test: Bactericidal activity against 10^6 CFU/ml Pseudomonas aeruginosa URMC2 at 1 to 4 times MIC up to 1 hr by time-kill assay
Pseudomonas aeruginosa [13] = test: Bactericidal activity against 10^6 CFU/ml Pseudomonas aeruginosa PAO1 at >= 16 times MIC up to 30 mins by time-kill assay
Pseudomonas aeruginosa [14] = test: Bactericidal activity against 10^6 CFU/ml Pseudomonas aeruginosa URMC1 at >= 16 times MIC up to 30 mins by time-kill assay
Pseudomonas aeruginosa [15] = test: Bactericidal activity against 10^6 CFU/ml Pseudomonas aeruginosa URMC2 at >= 16 times MIC up to 30 mins by time-kill assay
Pseudomonas aeruginosa [16] = test: Antimicrobial activity against 10^9 CFU/ml Pseudomonas aeruginosa PAO1 after 8 to 12 hrs by time-kill assay
Pseudomonas aeruginosa [17] = test: Antimicrobial activity against 10^6 CFU/ml Pseudomonas aeruginosa PAO1 at 2 to 16 mg/L after 24 hrs by time-kill assay
Pseudomonas aeruginosa [18] = test: Antimicrobial activity against 10^8 CFU/ml Pseudomonas aeruginosa PAO1 at 4 to 32 mg/L after 24 hrs by time-kill assay
Pseudomonas aeruginosa [19] = test: Antimicrobial activity against 10^9 CFU/ml Pseudomonas aeruginosa PAO1 at 4 to 128 mg/L after 24 hrs by time-kill assay
Pseudomonas aeruginosa [20] = test: Antimicrobial activity against 10^9.4 CFU/ml Pseudomonas aeruginosa PAO1 at 16 mg/L after 0.75 hrs by time-kill assay
Pseudomonas aeruginosa [21] = test: Antimicrobial activity against 10^9.4 CFU/ml Pseudomonas aeruginosa PAO1 at 64 mg/L after 0.75 hrs by time-kill assay
Pseudomonas aeruginosa [22] = test: Antimicrobial activity against 10^9.4 CFU/ml Pseudomonas aeruginosa PAO1 at 16 mg/L after 24 hrs by time-kill assay
Pseudomonas aeruginosa [23] = test: Antimicrobial activity against 10^9.4 CFU/ml Pseudomonas aeruginosa PAO1 at 64 mg/L after 24 hrs by time-kill assay
Pseudomonas aeruginosa [24] = test: Antimicrobial activity against Pseudomonas aeruginosa assessed as destabilization of bacterial outer membrane by receptor occupancy assay

**Q.** Which EC50 (Pseudomonas aeruginosa [1]) does the source give for COLISTIN [listing 1 of 2 here] here?
**A.** The EC50 was 0.777 µg/mL.

**Q.** What about the EC50 (Pseudomonas aeruginosa [2]) of the same sequence?
**A.** Its EC50 is 0.736 µg/mL.

**Q.** And the EC50 (Pseudomonas aeruginosa [3])?
**A.** Its EC50 is 1.15 µg/mL.

**Q.** What about the EC50 (Pseudomonas aeruginosa [4]) of the same sequence?
**A.** The EC50 was 1.49 µg/mL.

**Q.** And the EC50 (Pseudomonas aeruginosa [5])?
**A.** The EC50 was 2.69 µg/mL.

**Q.** What about the EC50 (Pseudomonas aeruginosa [6]) of the same sequence?
**A.** Its EC50 is 2.56 µg/mL.

**Q.** What about the EC50 (Pseudomonas aeruginosa [7]) of the same sequence?
**A.** The EC50 was 6.22 µg/mL.

**Q.** What about the EC50 (Pseudomonas aeruginosa [8]) of the same sequence?
**A.** The EC50 was 4.62 µg/mL.

**Q.** What about the EC50 (Pseudomonas aeruginosa [9]) of the same sequence?
**A.** Its EC50 is 3.5 µg/mL.

**Q.** What does the source list for COLISTIN [listing 2 of 2 here]?
**A.** Activity (Pseudomonas aeruginosa [1]): Dose-dependent effect; Activity (Pseudomonas aeruginosa [2]): Dose-dependent effect; Activity (Pseudomonas aeruginosa [3]): Dose-dependent effect; Activity (Pseudomonas aeruginosa [10]): Active; Activity (Pseudomonas aeruginosa [11]): Active; Activity (Pseudomonas aeruginosa [12]): Active; Activity (Pseudomonas aeruginosa [13]): Active; Activity (Pseudomonas aeruginosa [14]): Active; Activity (Pseudomonas aeruginosa [15]): Active; Activity (Pseudomonas aeruginosa [16]): inactive; Activity (Pseudomonas aeruginosa [17]): inactive; Activity (Pseudomonas aeruginosa [18]): inactive; Activity (Pseudomonas aeruginosa [19]): inactive; log10CFU/ml (Pseudomonas aeruginosa [20]): > 5; log10CFU/ml (Pseudomonas aeruginosa [21]): > 5; log10CFU/ml (Pseudomonas aeruginosa [22]): 5; log10CFU/ml (Pseudomonas aeruginosa [23]): > 5; Activity (Pseudomonas aeruginosa [24]): 53.7%
